Measurements published in patent EP0933350A1, “Tricyclic retinoids, methods for their production and use” (LIGAND PHARMACEUTICALS INCORPORATED, priority 1994, dated 1996).
pEC50, pIC50, pKd: −log10 of the molar value.

How the values were obtained:
[1] = molecular target: T1, RARα (Homo sapiens, UniProt P10276); experiment: co-transfection assay (RAR/RXR agonist activity, luciferase reporter in CV-1 cells); type: cell-based; settings: read-out: RARα Pot
T1 sequence (P10276 1-462): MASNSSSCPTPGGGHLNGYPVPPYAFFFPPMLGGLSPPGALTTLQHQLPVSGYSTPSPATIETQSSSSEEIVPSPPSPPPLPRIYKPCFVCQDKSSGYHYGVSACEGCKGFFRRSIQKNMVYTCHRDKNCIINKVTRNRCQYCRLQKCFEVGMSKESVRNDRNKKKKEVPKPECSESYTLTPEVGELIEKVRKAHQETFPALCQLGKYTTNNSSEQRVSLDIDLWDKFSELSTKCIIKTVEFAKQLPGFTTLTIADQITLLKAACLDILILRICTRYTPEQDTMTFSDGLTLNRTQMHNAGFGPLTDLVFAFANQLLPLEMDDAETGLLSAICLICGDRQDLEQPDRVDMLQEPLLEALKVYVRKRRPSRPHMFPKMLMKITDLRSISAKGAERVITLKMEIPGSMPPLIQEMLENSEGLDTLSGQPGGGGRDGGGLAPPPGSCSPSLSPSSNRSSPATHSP

[2] = molecular target: T2, RXRγ (Mus musculus, UniProt P28705); experiment: as above; type: cell-based; settings: read-out: RXRγ Pot
T2 sequence (P28705 1-463): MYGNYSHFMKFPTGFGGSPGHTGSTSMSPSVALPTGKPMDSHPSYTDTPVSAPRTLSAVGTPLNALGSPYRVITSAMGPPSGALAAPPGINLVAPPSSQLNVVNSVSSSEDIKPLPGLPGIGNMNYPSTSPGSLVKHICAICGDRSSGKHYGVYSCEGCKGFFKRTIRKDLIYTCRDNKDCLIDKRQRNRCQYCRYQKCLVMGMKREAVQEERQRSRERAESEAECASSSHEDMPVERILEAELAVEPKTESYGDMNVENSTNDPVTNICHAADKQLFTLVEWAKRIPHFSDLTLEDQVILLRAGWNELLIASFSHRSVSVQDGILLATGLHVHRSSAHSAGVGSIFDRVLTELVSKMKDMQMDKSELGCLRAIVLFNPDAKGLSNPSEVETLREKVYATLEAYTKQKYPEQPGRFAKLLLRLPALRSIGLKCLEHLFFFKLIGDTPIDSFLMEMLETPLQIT

[3] = molecular target: T3, RARβ (Homo sapiens, UniProt P10826); experiment: as above; type: cell-based; settings: potency = EC50, agonist, 40 hours, read-out: RARβ Pot
T3 sequence (P10826 1-448 isoform P10826-2): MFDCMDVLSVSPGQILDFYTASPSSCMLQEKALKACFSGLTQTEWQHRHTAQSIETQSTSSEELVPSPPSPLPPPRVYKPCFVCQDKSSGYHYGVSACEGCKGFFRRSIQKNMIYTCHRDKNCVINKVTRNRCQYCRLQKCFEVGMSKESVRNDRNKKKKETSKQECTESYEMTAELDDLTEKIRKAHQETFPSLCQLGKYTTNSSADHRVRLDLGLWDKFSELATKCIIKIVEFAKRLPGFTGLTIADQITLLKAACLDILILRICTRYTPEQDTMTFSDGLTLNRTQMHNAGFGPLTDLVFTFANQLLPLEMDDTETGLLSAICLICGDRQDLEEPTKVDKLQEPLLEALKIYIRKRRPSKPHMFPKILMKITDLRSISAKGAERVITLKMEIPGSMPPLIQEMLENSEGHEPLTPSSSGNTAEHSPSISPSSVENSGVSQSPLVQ

[4] = molecular target: T4, RARγ (Homo sapiens, UniProt P13631); experiment: as above; type: cell-based; settings: potency = EC50, agonist, 40 hours, read-out: RARγ Pot
T4 sequence (P13631 1-454): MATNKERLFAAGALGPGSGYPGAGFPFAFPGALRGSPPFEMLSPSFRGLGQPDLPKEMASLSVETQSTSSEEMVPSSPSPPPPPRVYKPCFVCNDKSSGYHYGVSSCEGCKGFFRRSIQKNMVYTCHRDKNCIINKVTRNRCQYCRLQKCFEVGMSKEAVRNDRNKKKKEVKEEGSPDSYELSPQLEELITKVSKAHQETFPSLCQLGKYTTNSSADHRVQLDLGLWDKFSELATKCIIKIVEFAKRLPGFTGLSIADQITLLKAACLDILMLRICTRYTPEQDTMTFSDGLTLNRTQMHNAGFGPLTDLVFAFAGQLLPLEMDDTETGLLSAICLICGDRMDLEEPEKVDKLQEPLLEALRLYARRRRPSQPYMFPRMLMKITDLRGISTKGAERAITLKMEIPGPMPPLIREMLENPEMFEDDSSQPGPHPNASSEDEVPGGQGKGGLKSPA

[5] = molecular target: T5, RXRβ (Mus musculus, UniProt P28704); experiment: as above; type: cell-based; settings: read-out: RXRβ Pot
T5 sequence (P28704 1-520): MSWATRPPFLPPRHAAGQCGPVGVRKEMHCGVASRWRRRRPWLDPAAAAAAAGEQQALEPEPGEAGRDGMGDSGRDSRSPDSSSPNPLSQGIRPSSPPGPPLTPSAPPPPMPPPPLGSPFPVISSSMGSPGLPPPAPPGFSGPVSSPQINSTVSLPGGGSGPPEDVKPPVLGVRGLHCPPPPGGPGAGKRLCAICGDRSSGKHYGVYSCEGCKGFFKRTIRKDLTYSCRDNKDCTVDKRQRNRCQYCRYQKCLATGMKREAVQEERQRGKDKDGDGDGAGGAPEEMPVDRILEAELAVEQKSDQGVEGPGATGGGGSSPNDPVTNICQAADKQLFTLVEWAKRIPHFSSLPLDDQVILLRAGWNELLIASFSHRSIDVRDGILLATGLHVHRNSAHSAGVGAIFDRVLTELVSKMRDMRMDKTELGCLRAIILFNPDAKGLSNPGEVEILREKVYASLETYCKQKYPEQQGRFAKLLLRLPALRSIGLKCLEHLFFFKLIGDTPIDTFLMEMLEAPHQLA

[6] = molecular target: T6, RXRα (Homo sapiens, UniProt P19793); experiment: as above; type: cell-based; settings: read-out: RXRα Pot
T6 sequence (P19793 1-462): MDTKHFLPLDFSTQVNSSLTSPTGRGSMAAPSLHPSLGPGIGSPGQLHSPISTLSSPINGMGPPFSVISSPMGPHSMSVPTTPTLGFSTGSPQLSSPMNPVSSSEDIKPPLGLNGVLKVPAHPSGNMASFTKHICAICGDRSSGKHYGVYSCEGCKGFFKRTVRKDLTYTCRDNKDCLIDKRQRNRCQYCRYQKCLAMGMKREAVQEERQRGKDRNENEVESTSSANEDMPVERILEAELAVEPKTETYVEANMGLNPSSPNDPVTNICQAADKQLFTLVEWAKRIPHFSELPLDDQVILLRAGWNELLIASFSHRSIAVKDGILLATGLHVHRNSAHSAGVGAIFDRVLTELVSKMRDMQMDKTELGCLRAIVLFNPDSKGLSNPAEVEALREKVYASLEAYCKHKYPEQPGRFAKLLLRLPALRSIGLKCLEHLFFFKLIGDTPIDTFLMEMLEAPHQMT

[7] = molecular target: T6, RXRα; experiment: competitive binding of tritiated retinoids to retinoid receptors; settings: competition with tritiated retinoid, Cheng-Prussof equation
[8] = molecular target: T7, RARβ (Homo sapiens, UniProt P10826); experiment: as above; settings: competition with tritiated retinoid, Cheng-Prussof equation
T7 sequence (P10826 1-455): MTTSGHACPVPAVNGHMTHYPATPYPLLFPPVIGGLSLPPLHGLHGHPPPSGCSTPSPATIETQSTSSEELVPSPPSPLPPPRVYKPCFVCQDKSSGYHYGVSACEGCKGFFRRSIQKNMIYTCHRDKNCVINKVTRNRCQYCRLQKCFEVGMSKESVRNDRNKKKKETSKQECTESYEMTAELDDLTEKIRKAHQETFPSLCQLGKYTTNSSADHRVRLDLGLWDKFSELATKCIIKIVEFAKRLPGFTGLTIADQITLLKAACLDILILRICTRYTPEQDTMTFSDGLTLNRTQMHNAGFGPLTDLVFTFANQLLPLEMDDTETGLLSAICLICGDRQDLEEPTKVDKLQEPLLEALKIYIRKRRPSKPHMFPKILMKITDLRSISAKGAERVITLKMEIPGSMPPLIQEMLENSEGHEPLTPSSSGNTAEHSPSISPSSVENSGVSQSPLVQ

[9] = molecular target: T1, RARα; experiment: as above; settings: competition with tritiated retinoid, Cheng-Prussof equation
[10] = molecular target: T5, RXRβ; experiment: as above; settings: competition with tritiated retinoid, Cheng-Prussof equation
[11] = molecular target: T2, RXRγ; experiment: as above; settings: competition with tritiated retinoid, Cheng-Prussof equation
[12] = molecular target: T4, RARγ; experiment: as above; settings: competition with tritiated retinoid, Cheng-Prussof equation
[13] = system: AML-193 cell line; experiment: viability (tetrazolium dye, mitochondrial function); type: cell-based; settings: Homo sapiens, 96 hours, read-out: MTS IC50
[14] = system: RPMI 8226 cell line; experiment: as above; type: cell-based; settings: Homo sapiens, 96 hours, read-out: MTS IC50
[15] = system: ME 180 cell line; experiment: as above; type: cell-based; settings: Homo sapiens, 96 hours, read-out: MTS IC50

Row | SMILES | pEC50 [1] | pEC50 [2] | pEC50 [3] | pEC50 [4] | pEC50 [5] | pEC50 [6] | pKd [7] | pKd [8] | pKd [9] | pKd [10] | pKd [11] | pKd [12] | pIC50 [13] | pIC50 [14] | pIC50 [15]
1 | CC1(C)CCC(C)(C)c2cc3c(cc21)CCC/C3=N\Nc1ccc(C(=O)O)cc1 [Compound 152b, E-4-[N'-(5,5,8,8-tetramethyl-3,4,5,6,7,8-hexahydro-2H-anthracen-1-ylidene)-hydrazino]benzoic acid] | 6.19 | < 5.00 | 8.10 | 7.49 | < 5.00 | < 5.00 |  |  |  |  |  |  |  |  | 
2 | CC(/C=C/C(=O)N1CCc2cc3c(cc21)C(C)(C)CCC3(C)C)=C\C(=O)O [Compound 141b, (2E,4E)-3-Methyl-6-oxo-6-[(2,3,5,6,7,8-hexahydro-5,5,8,8-tetramethyl)benzo-[f]-indol-1-yl]hexa-2,4-dienoic acid] | 6.06 | 5.53 | 7.49 | 7.92 | < 5.00 | < 5.00 |  |  |  |  |  |  |  |  | 
3 | CCN1CC\C(=C/C=C/C(C)=C/C(=O)O)c2cc3c(cc21)C(C)(C)CCC3(C)C [Compound 147b, (2E,4E)-3-methyl-6-[(E)1-ethyl-6,6,9,9-tetramethyl-2,3,6,7,8,9-hexahydro-1H-benzo[g]quinolin-4-ylidene]hexa-2,4-dienoic acid] | 7.46 | 5.83 | 8.40 | 9.00 | 6.24 |  | 6.36 | 8.40 | 8.22 | 6.26 | 6.14 | 8.10 |  |  | 
4 | CC(/C=C/CC1CCCc2cc3c(cc21)C(C)(C)CCC3(C)C)=C\C(=O)O (racemic) [Compound 124b, (2E,4E)-3-Methyl-6-(1,2,3,4,5,6,7,8-octahydro-5,5,8,8-tetramethylanthracen-1-yl)hexa-2,4-dienoic acid] | 7.00 | 7.59 | 7.48 | 7.03 | 7.43 | 7.42 |  |  |  |  |  |  |  |  | 
5 | CC(/C=C/C=C1/CCC(C)(C)c2cc3c(cc21)C(C)(C)CCC3(C)C)=C\C(=O)O [Compound 106b, (2E,4E)-3-Methyl-6-[(Z)-1,2,3,4,5,6,7,8-hexahydro-4,4,5,5,8,8-hexamethyl-2H-anthracen-1-ylidene]hexa-2,4-dienoic acid] | 7.08 | 6.90 | 7.70 | 7.85 | 7.28 | < 5.00 |  |  |  |  |  |  |  |  | 
6 | CC(/C=C/C=C1\CCc2c1ccc1c2C(C)(C)CCC1(C)C)=C\C(=O)O [Compound 135b, (2E,4E)-3-Methyl-6-[(E)-2,3,6,7,8,9-hexahydro-6,6,9,9-tetramethyl-1H-cyclopenta[a]naphthalen-3-ylidene]hexa-2,4-dienoic acid] | 5.93 | 5.60 | 7.28 | 7.33 | 5.70 | 5.56 |  |  |  |  |  |  |  |  | 
7 | CC(/C=C/CN1CCCc2c1ccc1c2C(C)(C)CCC1(C)C)=C\C(=O)O [Compound 143b, (2E,4E)-3-Methyl-6-(1,2,3,4,7,8,9,10-octahydro-7,7,10,10-tetramethylbenzo[f]quinolin-4-yl)hexa-2,4-dienoic acid] | < 5.00 | 6.61 | 6.33 | 5.73 | 6.33 | 6.41 |  |  |  |  |  |  |  |  | 
8 | CC1=C(/C=C/C(C)=C/C=C/C(C)=C/C(=O)O)C(C)(C)CCC1 [ATRA, all-trans retinoic acid, reference compound] |  |  |  |  |  |  |  |  |  |  |  |  | 6.00 | 6.12 | 6.05
